Assays:
OVCAR-3 (Ovarian) = experiment: NCI human tumor cell line growth inhibition, OVCAR-3; assay type: cell-based; conditions: Ovarian OVCAR-3, 48 hours
Protocol: (§1) The only difference is historical usage.
(§2) Percent Growths are calculated for each dose.
(§3) This is the "baseline count", or "Tzero reading".

SF-295 (CNS) = experiment: NCI human tumor cell line growth inhibition, SF-295; assay type: cell-based; conditions: CNS SF-295, 48 hours
Protocol: as §1, §2, §3

NCI-H460 (Lung-NSC) = experiment: NCI human tumor cell line growth inhibition, NCI-H460; assay type: cell-based; conditions: Lung-NSC NCI-H460, 48 hours
Protocol: as §1, §2, §3

KM20L2 (Colon) = experiment: NCI human tumor cell line growth inhibition, KM20L2; assay type: cell-based; conditions: Colon KM20L2, 48 hours
Protocol: as §1, §2, §3

SK-MEL-5 (Melanoma) = experiment: NCI human tumor cell line growth inhibition, SK-MEL-5; assay type: cell-based; conditions: for GI-50 / LC-50 / TGI: Melanoma SK-MEL-5, 48 hours
Protocol: as §1, §2, §3

PS-388 (Mouse Leukemia) = experiment: P-388 mouse leukemia cell growth inhibition; assay type: cell-based; conditions: Mouse Leukemia PS-388
Protocol: as §1, §2, §3

A498 (Renal) = conditions: Renal A498, 48 hours;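 further: NCI protocol, compound given at five doses from 0.01 to 100 µg/ml, percent growth versus untreated controls relative to cell count at time zero, regression on log dose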
Description: The following measures are used to express drug activity by giving the drug dose which reduces cell growth to a specified percentage of growth:
There is no mathematical difference between ED50 and GI50, which are both calculated using the same formula. The only difference is historical usage.
TGI, (Total Growth Inhibition), is the drug dose needed to yield zero percent growth, i.e., just as many cells at the end of the experiment as were present in the beginning. Whether just as many cells were killed as were produced (steady state), or no growth occurred (total inhibition), cannot be distinguished.
Each drug is tested at five (5) doses: 100-10-1-0.1-0.01 μg/ml. Percent Growths are calculated for each dose. […] The log of the dose is used during the regression computation.
At the start of an experiment, cells from the in vitro cell cultures are inoculated into the appropriate tubes or microtiter plates. One set of control tubes/plates is immediately counted to determine the number of cells at the start of the experiment. This is the "baseline count", or "Tzero reading". At the end of the experiment (48 hours later) a second set of control tubes/plates is analyzed to determine the "Control Growth" value. The growth (or death) of cells relative to the initial quantity of cells is used to define the "Percent of Growth".

Substance | GI-50 (OVCAR-3 (Ovarian)) | LC-50 (OVCAR-3 (Ovarian)) | TGI (OVCAR-3 (Ovarian)) | GI-50 (SF-295 (CNS)) | LC-50 (SF-295 (CNS)) | TGI (SF-295 (CNS)) | GI-50 (NCI-H460 (Lung-NSC)) | LC-50 (NCI-H460 (Lung-NSC)) | TGI (NCI-H460 (Lung-NSC)) | GI-50 (KM20L2 (Colon)) | LC-50 (KM20L2 (Colon)) | TGI (KM20L2 (Colon)) | GI-50 (SK-MEL-5 (Melanoma)) | LC-50 (SK-MEL-5 (Melanoma)) | TGI (SK-MEL-5 (Melanoma)) | human tumor inhibiting activity (SK-MEL-5 (Melanoma); Melanoma SK-MEL-5 cell line, statement in words) | ED-50 (PS-388 (Mouse Leukemia)) | GI-50 (A498 (Renal)) | LC-50 (A498 (Renal)) | TGI (A498 (Renal))
L-Dolavalyl-L-Valyl-N-Methyl-(S,S,R)-Dolaisoleuinyl-(S,R,R)-Dolaproinyl-L- Phenylalanine N-3-Chlorophenyl Amide [9d] | 0.000018 µg/mL | > 0.01 µg/mL | 0.16 ng/mL | 0.000041 µg/mL | > 0.01 µg/mL | > 1 ng/mL | 0.0000094 µg/mL | > 0.01 µg/mL | 0.11 ng/mL | 0.000007 µg/mL | > 0.01 µg/mL | 0.19 ng/mL | < 1e-12 µg/mL | > 0.01 µg/mL | 5.1 ng/mL | unprecedented and extraordinary human tumor inhibiting activity | 0.00258 µg/mL | 0.00012 µg/mL | > 0.01 µg/mL | > 1 ng/mL
L-Dolavalyl-L-Valyl-N-Methyl-(S,S,R)-Dolaisoleuinyl-(S,R,R)-Dolaproinyl-L- Phenylalanine N-4-Chlorophenyl Amide [9f] | 0.0000014 µg/mL | > 0.0001 µg/mL | 0.0056 ng/mL | 0.0000025 µg/mL | > 0.0001 µg/mL | > 0.1 ng/mL | 0.0000018 µg/mL | > 0.0001 µg/mL | 0.01 ng/mL | 0.0000029 µg/mL | > 0.0001 µg/mL | 0.0084 ng/mL | 0.0000002 µg/mL | > 0.0001 µg/mL | 0.047 ng/mL |  | 0.0000452 µg/mL | 0.000007 µg/mL | > 0.0001 µg/mL | > 0.1 ng/mL
L-Dolavalyl-L-Valyl-N-Methyl-(S,S,R)-Dolaisoleuinyl-(S,R,R)-Dolaproinyl-L- Proline N-2-Benzothiazole Amide [9n] | 0.000027 µg/mL |  | 0.079 ng/mL | 0.000035 µg/mL |  | > 0.1 ng/mL | 0.000031 µg/mL |  | > 0.1 ng/mL | 0.000029 µg/mL |  | > 0.1 ng/mL | 0.0000098 µg/mL |  | > 0.1 ng/mL |  | 0.00083 µg/mL | 0.000081 µg/mL |  | > 0.1 ng/mL
L-Dolavalyl-L-Valyl-N-Methyl-(S,S,R)-Dolaisoleuinyl-(S,R,R)-Dolaproinyl-L- Proline N-3-Quinoline Amide [9q] | 0.000086 µg/mL | > 0.0001 µg/mL | > 0.1 ng/mL | 0.00036 µg/mL | > 0.0001 µg/mL | > 0.1 ng/mL | 0.0003 µg/mL | > 0.0001 µg/mL | > 0.1 ng/mL | 0.00033 µg/mL | > 0.0001 µg/mL | > 0.1 ng/mL | 0.00011 µg/mL | > 0.0001 µg/mL | > 0.1 ng/mL |  | 0.000415 µg/mL | 0.00041 µg/mL | > 0.0001 µg/mL | > 0.1 ng/mL
L-Dolavalyl-L-Valyl-N-Methyl-(S,S,R)-Dolaisoleuinyl-(S,R,R)-Dolaproinyl-L- Valine N-3-Quinoline Amide [9r] | 0.000019 µg/mL | > 0.0001 µg/mL | 0.069 ng/mL | 0.000027 µg/mL | > 0.0001 µg/mL | > 0.1 ng/mL | 0.000026 µg/mL | > 0.0001 µg/mL | > 0.1 ng/mL | 0.000031 µg/mL | > 0.0001 µg/mL | > 0.1 ng/mL | 0.0000057 µg/mL | > 0.0001 µg/mL | > 0.1 ng/mL |  | 0.0041 µg/mL | 0.000051 µg/mL | > 0.0001 µg/mL | > 0.1 ng/mL

Source: patent US5663149A, “Human cancer inhibitory pentapeptide heterocyclic and halophenyl amides” (priority 1994, dated 1997)
